Results reported in patent publication US20150011508A1, “COMPOUNDS AND COMPOSITIONS AS C-KIT KINASE INHIBITORS” (priority 2011, published 2015).

The molecules below were run against T1, c-kit (Homo sapiens, UniProt P10721) (assay: Mo7e cell proliferation assay (SCF dependent proliferation)). Settings: Table 1; human Mo7e cells stimulated with human recombinant SCF, 48 h, CellTiter Glo; 1% FBS (footnote).
T1 construct: human Mo7e cells which endogenously express c-kit; endogenous in cells; host or cells: human Mo7e cells (SCF-dependent promegakaryocytic leukemia line)
Type: cell-based
Procedure, shortened: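 SCF-dependent proliferation of human Mo7e cells, which express c-kit endogenously, was measured after 48 h at 37° C by CellTiter Glo luminescence. IC50 was taken as the concentration giving a response halfway between the baseline and maximum responses.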

T1 sequence (P10721 26-976): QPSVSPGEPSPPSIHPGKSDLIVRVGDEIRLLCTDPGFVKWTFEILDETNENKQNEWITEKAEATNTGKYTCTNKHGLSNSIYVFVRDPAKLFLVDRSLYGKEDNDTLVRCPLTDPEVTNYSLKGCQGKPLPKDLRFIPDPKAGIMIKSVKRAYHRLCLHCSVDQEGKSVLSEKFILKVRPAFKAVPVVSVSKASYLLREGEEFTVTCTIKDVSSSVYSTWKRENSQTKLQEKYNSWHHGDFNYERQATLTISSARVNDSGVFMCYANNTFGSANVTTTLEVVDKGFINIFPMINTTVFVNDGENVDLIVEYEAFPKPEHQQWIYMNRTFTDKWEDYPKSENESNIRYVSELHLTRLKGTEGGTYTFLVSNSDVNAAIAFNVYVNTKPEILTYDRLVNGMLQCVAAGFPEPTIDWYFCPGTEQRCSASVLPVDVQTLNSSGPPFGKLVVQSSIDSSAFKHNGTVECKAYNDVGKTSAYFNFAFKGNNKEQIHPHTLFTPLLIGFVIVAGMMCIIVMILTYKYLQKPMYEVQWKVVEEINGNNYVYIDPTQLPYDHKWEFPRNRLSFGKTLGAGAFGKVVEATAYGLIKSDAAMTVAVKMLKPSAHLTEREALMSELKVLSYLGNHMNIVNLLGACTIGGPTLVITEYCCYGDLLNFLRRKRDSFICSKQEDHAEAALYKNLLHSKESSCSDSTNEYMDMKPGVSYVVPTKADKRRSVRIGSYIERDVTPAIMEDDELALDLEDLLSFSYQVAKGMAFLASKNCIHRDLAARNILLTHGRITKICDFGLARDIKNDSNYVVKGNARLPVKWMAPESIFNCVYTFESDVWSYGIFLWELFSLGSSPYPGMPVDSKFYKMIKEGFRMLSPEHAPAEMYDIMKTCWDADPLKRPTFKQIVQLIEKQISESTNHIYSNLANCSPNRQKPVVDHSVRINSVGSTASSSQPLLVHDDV

IC50 [nM]	SMILES
48	COC(C)(CCc1nc(-c2ccc(C)c(NC(=O)c3cnc4cc(C)ccn34)c2)no1)C(F)(F)F (centres unmarked) [F90]
80	Cc1nc(-c2ccc(C)c(NC(=O)c3cnc4ccc(-c5cccn5C)cn34)c2)no1 [F101]
42	Cc1ccc(-c2noc(CC[C@@](C)(O)C(F)(F)F)n2)cc1NC(=O)c1cnc2ccc(F)cn12 [F88]
27	Cc1ccc(-c2noc(CCC(C)(O)C(F)(F)F)n2)cc1NC(=O)c1cnc2ccccn12 (centres unmarked) [F66, N-(2-methyl-5-(5-(4,4,4-trifluoro-3-hydroxy-3-methylbutyl)-1,2,4-oxadiazol-3-yl)phenyl)imidazo[1,2-a]pyridine-3-carboxamide]
48	Cc1nc(-c2ccc(C)c(NC(=O)c3cnc4ccc(-c5ccncc5C)cn34)c2)no1 [F83]
87	Cc1ccc(-c2noc(CCC(C)O)n2)cc1NC(=O)c1cnc2ccccn12 (centres unmarked) [F9, N-(5-(5-(3-hydroxybutyl)-1,2,4-oxadiazol-3-yl)-2-methylphenyl)imidazo[1,2-a]pyridine-3-carboxamide]
8	Cc1nc(-c2ccc(C)c(NC(=O)c3cnc4ccc(-c5sc(CO)nc5C)cn34)c2)no1 [F265, 6-(2-(hydroxymethyl)-4-methylthiazol-5-yl)-N-(2-methyl-5-(5-methyl-1,2,4-oxadiazol-3-yl)phenyl)imidazo[1,2-a]pyridine-3-carboxamide]
38	Cc1nc(-c2ccc(C)c(NC(=O)c3cnc4ccc(-c5scnc5C)cn34)c2)no1 [F97]
57	Cc1ccc(-c2noc(CN(C)C(=O)OC(C)(C)C)n2)cc1NC(=O)c1cnc2ccccn12 [F19, tert-butyl (3-(3-(imidazo[1,2-a]pyridine-3-carboxamido)-4-methylphenyl)-1,2,4-oxadiazol-5-yl)methyl(methyl)carbamate]
272	Cc1ccc(-c2noc(CCC(C)(C)O)n2)cc1NC(=O)c1cnc2cc(N3CCOC3=O)ccn12 [F61]
30	Cc1ccc2ncc(C(=O)Nc3cc(-c4noc(CC[C@](C)(O)C(F)(F)F)n4)ccc3C)n2c1 [F84]
32	CNC(=O)Cn1nc(C)c(-c2ccc3ncc(C(=O)Nc4cc(-c5noc(C)n5)ccc4C)n3c2)c1C [F260, 6-(3,5-dimethyl-1-(2-(methylamino)-2-oxoethyl)-1H-pyrazol-4-yl)-N-(2-methyl-5-(5-methyl-1,2,4-oxadiazol-3-yl)phenyl)imidazo[1,2-a]pyridine-3-carboxamide]
35	Cc1ccc2ncc(C(=O)Nc3cc(-c4noc(CCC(C)(O)C(F)(F)F)n4)ccc3C)n2c1 (centres unmarked) [F72]
79	Cc1ccc(-c2noc(CCC(C)(C)O)n2)cc1NC(=O)c1cnc2cc(N3CCCC3=O)ccn12 [F62]
19	Cc1nc(-c2ccc(C)c(NC(=O)c3cnc4ccc(-c5c(C)nn(C)c5C)cn34)c2)no1 [F100]
63	Cc1ccc(-c2noc(CCC(C)(C)O)n2)cc1NC(=O)c1cnc2ccccn12 [F8, N-(5-(5-(3-hydroxy-3-methylbutyl)-1,2,4-oxadiazol-3-yl)-2-methylphenyl)imidazo[1,2-a]pyridine-3-carboxamide]
98	Cc1ccc2ncc(C(=O)Nc3cc(-c4noc(CCC(C)(C)O)n4)ccc3C)n2c1 [F57]
5	Cc1ccc(-c2noc(CCCC(F)(F)F)n2)cc1NC(=O)c1cnc2ccccn12 [F80]
52	Cc1ccn2c(C(=O)Nc3cc(-c4noc(CCC(C)(C)O)n4)ccc3C)cnc2c1 [F50, N-(5-(5-(3-hydroxy-3-methylbutyl)-1,2,4-oxadiazol-3-yl)-2-methylphenyl)-7-methylimidazo[1,2-a]pyridine-3-carboxamide]
46	Cc1nc(-c2ccc(C)c(NC(=O)c3cnc4ccc(-c5cn[nH]c5)cn34)c2)no1 [F43]
71	Cc1ccc(-c2noc(CNC(=O)OCC(F)F)n2)cc1NC(=O)c1cnc2ccccn12 [F40, 2,2-difluoroethyl ((3-(3-(imidazo[1,2-a]pyridine-3-carboxamido)-4-methylphenyl)-1,2,4-oxadiazol-5-yl)methyl)carbamate]
18	Cc1ccn2c(C(=O)Nc3cc(-c4noc(CCC(O)C(F)(F)F)n4)ccc3C)cnc2c1 (centres unmarked) [F98]
44	Cc1ccc(-c2noc(CCC(C)(O)C(F)(F)F)n2)cc1NC(=O)c1cnc2cc(F)ccn12 (centres unmarked) [F70]
80	CCOC(=O)NCc1nc(-c2ccc(C)c(NC(=O)c3cnc4ccccn34)c2)no1 [F29]
87	CCOC(=O)Cc1nc(-c2ccc(C)c(NC(=O)c3cnc4ccccn34)c2)no1 [F7]
25	[2H]c1c([2H])c([2H])n2c(C(=O)Nc3cc(-c4noc(CCC(C)(O)C(F)(F)F)n4)ccc3C)cnc2c1[2H] (centres unmarked) [F73]

Same assay, conditions: Table 2; human Mo7e cells stimulated with human recombinant SCF, 48 h, CellTiter Glo; 1% FBS (footnote)

IC50 [nM]	SMILES
119	Cc1ccc(-c2nc(C(C)C)no2)cc1NC(=O)c1cnc2ccccn12 [F107]
287	Cc1nc(-c2ccc(C)c(NC(=O)c3cnc4ccc(CCC(C)(C)O)cn34)c2)no1 [F181]
104	Cc1ccc(-c2noc(CCC(C)O)n2)cc1NC(=O)c1cnc2ccccn12 (centres unmarked) [F121]
279	COC(=O)NCc1nc(-c2ccc(C)c(NC(=O)c3cnc4cc(CCC(C)(C)O)ccn34)c2)no1 [F178]
122	Cc1ccc(-c2noc(C(C)C)n2)cc1NC(=O)c1cnc2ccccn12 [F189]
691	Cc1nc(-c2ccc(C)c(NC(=O)c3cnc4ccc(CCN5CCOCC5)cn34)c2)no1 [F212]
805	COCc1n[nH]c(-c2ccc3ncc(C(=O)Nc4cc(-c5noc(CCC(C)(C)O)n5)ccc4C)n3c2)n1 [F214]
1190	Cc1ccc(-c2noc(CNC(=O)OCCC(F)(F)F)n2)cc1NC(=O)c1cnc2ccccn12 [F220]
182	Cc1nc(-c2ccc(C)c(NC(=O)c3cnc4ccc(-c5nc(C)c(C)s5)cn34)c2)no1 [F237]
145	Cc1ccc(-c2noc([C@H](C)NS(C)(=O)=O)n2)cc1NC(=O)c1cnc2ccccn12 [F136]
480	Cc1ccc(-c2noc(C(F)F)n2)cc1NC(=O)c1cnc2ccccn12 [F160]
313	Cc1ccc(-c2noc(NCC(C)(C)O)n2)cc1NC(=O)c1cnc2cc(F)ccn12 [F192]
157	COC(=O)NCc1nc(-c2ccc(C)c(NC(=O)c3cnc4ccc(C)cn34)c2)no1 [F204]
527	CCNC(=O)CCc1nc(-c2ccc(C)c(NC(=O)c3cnc4ccccn34)c2)no1 [F118]
193	COC(=O)N[C@H](C)c1nc(-c2ccc(C)c(NC(=O)c3cnc4ccccn34)c2)no1 [F137]
1320	CC(=O)NCCCc1nc(-c2ccc(C)c(NC(=O)c3cnc4ccccn34)c2)no1 [F222]
135	Cc1nc(-c2ccc(C)c(NC(=O)c3cnc4ccc(-c5cnccc5C)cn34)c2)no1 [F202]
735	Cc1ccc(-c2noc(CCS(N)(=O)=O)n2)cc1NC(=O)c1cnc2ccccn12 [F116]
194	Cc1nc(-c2ccc(C)c(NC(=O)c3cnc4ccc(-c5nc(C)c(C(=O)NCCN6CCN(C)CC6)s5)cn34)c2)no1 [F243]
174	CCC(C)(O)c1nc(-c2ccc(C)c(NC(=O)c3cnc4ccccn34)c2)no1 (centres unmarked) [F205]
155	Cc1nc(-c2ccc(C)c(NC(=O)c3cnc4ccc(-c5nc(C)c(C(=O)NCCO)s5)cn34)c2)no1 [F242]
318	CCNC(=O)Cc1nc(-c2ccc(C)c(NC(=O)c3cnc4ccccn34)c2)no1 [F209]
1340	CC(=O)N[C@@H](C)c1nc(-c2ccc(C)c(NC(=O)c3cnc4ccccn34)c2)no1 [F140]
284	Cc1ccc(Nc2noc(C(C)C)n2)cc1NC(=O)c1cnc2ccccn12 [F174]
